From patent publication US10301520B2, “Compositions of hydrochlorofluoroolefins” (Arkema Inc., priority 2008, dated 2019) come the findings set out here.

Some results are limits rather than exact numbers.

Data set [1] can be described thus: Vapor pressure in high-pressure cell. The format is physicochemical. The method, then:
A high-pressure cell equipped with a certified pressure gauge was evacuated by a vacuum pump to remove all permanent gases. 14.21 g of 1233xf and 9.17 g of E-1233zd were then loaded into the cell individually by a stainless steel syringe pump. The high-pressure cell was placed in an orbital shaker in which temperature was controlled at the accuracy of 0.1° C. […] At each temperature the pressure was measured after one hour in order to achieve equilibrium. The accuracy of the pressure gauge was + or −0.1 psia. […] The measured pressure can be seen in Table 1.

The nature of data set [2]: Flash point, ASTM D3278-96. Type of data set: physicochemical. An excerpt:
Flammability of a solvent is related to safety of its use. For most application, it is desirable that a solvent have as low a flammable as possible. The flammability of E-1233zd was characterized by flash point measured according to ASTM D3278-96. The flash point of TDCE and HCFC 225 were used as comparative examples.

Data set [3] is described as follows: Evaporator cleaning (flushing). As to conditions: flushing 10 minutes at ambient temperature; compared with HFC-245fa. The method, then: An evaporator from a refrigeration system contains a known quantity of 300 SUS mineral oil. The evaporator could be flushed with flushing agent for 10 minutes at ambient temperature. Following the flushing period, the quantity of oil and residue removed would be determined. This could be done by measuring the weight of the evaporator following flushing and evacuation of flushing agent and/or by stripping the flushing agent from the removed oil and residue and weighing that. HFC-245fa and trans-HCFO-1233zd would be used as flushing agents.

Data set [4] can be described thus: Cleaning of mineral oil from stainless steel plates. As to conditions: immersion 5 minutes at ambient temperature. The method, then: (§1) A small quantity of commercial lubricant oil was deposited on the surface of several 30×10 mm stainless steel plates. The mass of each plate was determined with a precision of 0.1 mg before and after deposition. The difference between these two values corresponds to the initial mass of lubricant.
(§2) Once the initial mass is obtained, each steel plate is immersed in a beaker filled with a cleaning composition at ambient temperature for 5 minutes. Thereafter, the steel plates were removed from the beaker and dried in the open air for 5 minutes. Thereafter, the mass of each plate was determined to evaluate the percentage of lubricant oil removed during the test.
A procedure similar to Example 5 was followed using commercial natural mineral oil for high pressure.

A further data set can be described thus: AMES testing. The format is cell-based. To be noted: compared with the cis isomer. The text has this: A major portion of the HCFO-1233zd of the present invention is the trans isomer. […] A preferred ratio of trans and cis isomers of HCFO-1233zd is less than about 30% weight of the combination of the cis isomer, and preferably less than about 10% of the cis isomer. The most preferred ratio is less than about 3% of the cis isomer. […] The preferred Kauri-butanol value of the composition of the present invention is above 15 and preferably above 20.

The nature of data set [5]: Cleaning of silicone oil from stainless steel plates. To be noted: silicon oil; immersion 5 minutes at ambient temperature. On the procedure: as §1, §2
A procedure similar to Example 5 was followed using silicon oil. The results were summarized as in Table 6

A short description of data set [6]: Defluxing of solder flux from stainless steel plates. The method, then:
A small quantity of commercial solder flux was deposited on the surface of several 30×10 mm stainless steel plates. The mass of each plate was determined with a precision of 0.1 mg before deposition and corresponds to the tare. The plates were heated to 250° C. until fusion of the metal from the solder flux (between 1 and 2 min.). The metal could then be easily removed from the plates and only the flux remained on them.
The plates prepared with this method were dried in the open air at ambient temperature for 16 hours. The mass of each dried plate was determined with a precision of 0.1 mg before and after deposition. The difference between these two values corresponds to the initial mass of flux.
Once the initial mass was obtained, half of the steel plates are immersed in a beaker filled with a cleaning composition at ambient temperature for 30 minutes and the other half of the plates immersed in a beaker filled with the cleaning solution for 60 minutes. After the immersion, the steel plates were removed from the beakers and dried in the open air for 5 minutes. Thereafter, the mass of each plate was determined to evaluate the percentage of flux removed during the test.

A short description of data set [7]: Degreasing of lubricant oil from stainless steel plates. As to conditions: immersion 5 minutes at ambient temperature. The method, then: as §1, §2
The nature of data set [8]: Residual flushing agent after drying of evaporator. To be noted: 25 °C, air flow, 10 minutes drying; compared with trans-HCFO-1233zd. The method, then:
To a clean evaporator from an air conditioning, a measured quantity of flushing liquid would be added to simulate conditions following an open-loop evaporator flushing procedure. The evaporator would be maintained at 25° C. with a slow flow of air passing through the evaporator to assist in drying. The evaporator would be dried such as for 10 minutes and then weighed to measure the quantity of flushing agent remaining.

Regarding `C=C(Cl)C(F)(F)F` [1233xf, 2-chloro-3,3,3-trifluoropropene, reference compound], the Pressure in [1] (5.0 °C) was 11.5 psia; in data set [1] (15.0 °C) it was 16.8 psia; in data set [1] (18.5 °C) it was 18.3 psia; in [1] (25.0 °C), 23.8 psia; in [1] (35.0 °C), 32.7 psia. For the same compound, the “Pressure versus atmospheric pressure” value in data set [1] (temperature range 15 to 25 °C) is greater than 14.7 psia.
As to `FC(F)(F)/C=C/Cl` [E-1233zd, 1-chloro-3,3,3-trifluoropropene], the Pressure in data set [1] (5.0 °C) is recorded as 9.1 psia; in [1] (15.0 °C) it was 13.7 psia; in data set [1] (18.5 °C) it was 14.7 psia; in data set [1] (25.0 °C) it was 19.7 psia; in [1] (35.0 °C), 27.5 psia. The “Pressure versus atmospheric pressure” value in data set [1] (temperature range 5 to 15 °C) was “lower than atmospheric”. The Flash point entry in data set [2] is reported as “No”. In [3], the “Percentage of oil and residue removed during flushing” value was “greater percentage”. The Removal rate in [4] turned out to be 57.2%; in [5], 99.10%; in data set [7], 99.10%. In the data set “AMES testing”, the “Genotoxicity in AMES testing” value is listed as “significantly lower genotoxicity”. Further, in data set [6] (immersion 30 minutes at ambient temperature), the “Removal rate for 30 mn” value was determined as 36.04%. The “Removal rate for 60 mn” value in data set [6] (immersion 60 minutes at ambient temperature) turned out to be 26.24%.
As to `CC(F)(Cl)Cl` [HCFC 141b, 1,1-dichloro-1-fluoroethane, reference compound], the Removal rate in [5] amounted to 98.40%; in data set [7], 99.60%.
`COC(C)=O` [Methyl acetate] showed a Removal rate in data set [4] of 31.67%.
`Cl/C=C/Cl` [TDCE, trans-1,2-dichloroethylene]: the Flash point entry in data set [2] is listed as “Yes”. This compound also displayed a Removal rate in data set [4] of 88.51%.
In the case of `FC(F)(F)/C=C/Cl` [cis-HCFO-1233zd, 1-chloro-3,3,3-trifluoropropene], the “Quantity of flushing agent remaining after drying” value in data set [8] was “more cis-HCFO-1233zd would remain”.
In the case of dichloropentafluoropropane [HCFC 225], the Flash point entry in data set [2] is given as “No”.
